Measurements as given in ChEMBL document CHEMBL1909046, “DrugMatrix in vitro pharmacology data”.

Columns and labels:
[1] = DRUGMATRIX: Calcium Channel Type L, Benzothiazepine radioligand binding (ligand: [3H] Diltiazem); format: cell membranes, Rattus norvegicus, Wistar, Brain, Membrane; conditions: Not Active = under 50% inhibition at 10 µM
[2] = molecular target: C-C chemokine receptor type 2 (Homo sapiens, UniProt P41597); format: cell membranes, Membrane; conditions: cho-k1; further: in other assays of this panel Not Active means under 50% inhibition at 10 µM
C-C chemokine receptor type 2, sequence (P41597 whole entry): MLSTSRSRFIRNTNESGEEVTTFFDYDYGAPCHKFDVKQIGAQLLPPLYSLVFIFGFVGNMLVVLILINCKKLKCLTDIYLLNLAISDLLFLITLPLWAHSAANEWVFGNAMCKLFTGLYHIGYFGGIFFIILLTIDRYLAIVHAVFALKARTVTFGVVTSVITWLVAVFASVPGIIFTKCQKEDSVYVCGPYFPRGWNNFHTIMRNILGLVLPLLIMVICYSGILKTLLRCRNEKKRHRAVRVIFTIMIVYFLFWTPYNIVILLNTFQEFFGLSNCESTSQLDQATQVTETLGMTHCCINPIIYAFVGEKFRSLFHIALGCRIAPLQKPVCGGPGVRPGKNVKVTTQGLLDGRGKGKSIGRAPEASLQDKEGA

[3] = DRUGMATRIX: Imidazoline I2, Central radioligand binding (ligand: [3H] Idazoxan); format: cell membranes, Rattus norvegicus, Wistar, Cerebral cortex, Membrane; conditions: Not Active = under 50% inhibition at 10 µM
Melanocortin receptor 3 = Melanocortin receptor 3 (Homo sapiens, UniProt P41968); format: cell membranes, HEK293, Membrane; further: in other assays of this panel Not Active means under 50% inhibition at 10 µM
Melanocortin receptor 3, sequence (P41968 whole entry): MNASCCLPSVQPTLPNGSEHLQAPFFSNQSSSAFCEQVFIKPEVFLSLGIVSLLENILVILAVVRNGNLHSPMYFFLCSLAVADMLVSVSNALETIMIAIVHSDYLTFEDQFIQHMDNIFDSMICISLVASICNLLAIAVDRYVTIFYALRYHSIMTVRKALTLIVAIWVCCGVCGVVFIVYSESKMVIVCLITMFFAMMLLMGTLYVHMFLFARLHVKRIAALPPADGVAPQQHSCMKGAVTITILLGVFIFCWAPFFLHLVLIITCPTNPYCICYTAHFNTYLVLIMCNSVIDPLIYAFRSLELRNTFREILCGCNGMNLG

[4] = molecular target: Tyrosine-protein kinase Lck (Homo sapiens, UniProt P06239); test: DRUGMATRIX: Protein Tyrosine Kinase, LCK enzyme inhibition (substrate: Poly(Glu:Tyr)); format: cell-based, Insect cells; conditions: Not Active = under 50% inhibition at 10 µM
Tyrosine-protein kinase Lck, sequence (P06239 whole entry): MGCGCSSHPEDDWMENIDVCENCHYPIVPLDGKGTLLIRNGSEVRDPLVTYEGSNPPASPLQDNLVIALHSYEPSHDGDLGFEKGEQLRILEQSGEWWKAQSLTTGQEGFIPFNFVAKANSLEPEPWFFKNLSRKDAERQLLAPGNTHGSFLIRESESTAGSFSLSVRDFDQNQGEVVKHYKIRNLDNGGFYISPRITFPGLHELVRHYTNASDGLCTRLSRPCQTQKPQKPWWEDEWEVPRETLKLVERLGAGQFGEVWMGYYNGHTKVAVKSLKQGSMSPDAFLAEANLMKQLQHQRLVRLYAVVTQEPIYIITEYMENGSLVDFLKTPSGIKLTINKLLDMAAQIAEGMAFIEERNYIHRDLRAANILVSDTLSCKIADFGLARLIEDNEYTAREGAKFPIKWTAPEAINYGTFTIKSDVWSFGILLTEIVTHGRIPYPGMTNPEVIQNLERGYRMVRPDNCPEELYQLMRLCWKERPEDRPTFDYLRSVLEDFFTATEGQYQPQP

Adenosine receptor A1 = molecular target: T1, Adenosine receptor A1 (Homo sapiens, UniProt P30542); format: cell membranes, CHO, Membrane; conditions: cho;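 further: radioligand binding assay at the adenosine A1 receptor, with DPCPX serving as the labelled ligand; in other assays of this panel Not Active means under 50% inhibition at 10 µM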
T1 sequence (P30542 whole entry): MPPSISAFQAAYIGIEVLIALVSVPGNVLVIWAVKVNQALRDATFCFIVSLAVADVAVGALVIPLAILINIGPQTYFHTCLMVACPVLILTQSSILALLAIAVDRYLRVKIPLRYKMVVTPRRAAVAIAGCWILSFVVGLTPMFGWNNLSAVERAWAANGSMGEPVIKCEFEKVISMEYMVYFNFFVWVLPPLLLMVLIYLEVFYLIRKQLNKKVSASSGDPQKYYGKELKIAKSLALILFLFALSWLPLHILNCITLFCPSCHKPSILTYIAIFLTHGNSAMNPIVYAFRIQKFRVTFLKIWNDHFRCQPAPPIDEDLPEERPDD

C[C@H]1C[C@@H]2[C@H]([C@@H](O)C[C@@]3(C)[C@H]2CC[C@]3(O)C(=O)CO)[C@@]2(C)C=CC(=O)C=C12 [METHYLPREDNISOLONE]
IC50 [1]: Not Active
Ki [1]: Not Active
IC50 [2]: Not Active
IC50 [3]: Not Active
Ki [3]: Not Active
IC50 (Melanocortin receptor 3; hek293): Not Active
IC50 ([4]; insect cells): Not Active
IC50 (Adenosine receptor A1): Not Active

NC1CCN(c2nc3c(cc2F)c(=O)c(C(=O)O)cn3-c2ccc(F)cc2F)C1 (configuration not stated) [TOSUFLOXACIN]
IC50 [1]: Not Active
Ki [1]: Not Active
IC50 [2]: Not Active
IC50 [3]: Not Active
Ki [3]: Not Active
IC50 (Melanocortin receptor 3; hek293): Not Active
IC50 ([4]; insect cells): Not Active
IC50 (Adenosine receptor A1): Not Active

SODIUM ORTHOVANAD
IC50 [1]: Not Active
Ki [1]: Not Active
IC50 [2]: Not Active
Ki [2]: Not Active
IC50 [3]: Not Active
Ki [3]: Not Active
IC50 (Melanocortin receptor 3; hek293): Not Active
Ki (Melanocortin receptor 3; hek293): Not Active
IC50 ([4]; insect cells): Not Active
Ki ([4]; insect cells): Not Active
IC50 (Adenosine receptor A1): Not Active
Ki (Adenosine receptor A1): Not Active

Cc1c(C)c2c(c(C)c1O)CCC(C)(CN1CCN(c3cc(N4CCCC4)nc(N4CCCC4)n3)CC1)O2 (configuration not stated)
IC50 ([1]; read-out: IC50): 1.65 µM
Ki ([1]; read-out: Ki): 1.47 µM
IC50 [2]: Not Active
IC50 [3]: Not Active
Ki [3]: Not Active
IC50 (Melanocortin receptor 3; read-out: IC50): 17.3 µM
Ki (Melanocortin receptor 3; read-out: Ki): 15.1 µM
IC50 ([4]; read-out: IC50): 17.1 µM
IC50 (Adenosine receptor A1): Not Active

O=C(O)c1cn(-c2ccc(F)cc2)c2cc(N3CCNCC3)c(F)cc2c1=O [SARAFLOXACIN]
IC50 [1]: Not Active
Ki [1]: Not Active
IC50 [2]: Not Active
IC50 [3]: Not Active
Ki [3]: Not Active
IC50 (Melanocortin receptor 3; hek293): Not Active
IC50 ([4]; insect cells): Not Active
IC50 (Adenosine receptor A1): Not Active

Nc1cc(N2CCCCC2)nc(N)[n+]1[O-] [MINOXIDIL]
IC50 [1]: Not Active
Ki [1]: Not Active
IC50 [2]: Not Active
IC50 [3]: Not Active
Ki [3]: Not Active
IC50 (Melanocortin receptor 3; hek293): Not Active
IC50 ([4]; insect cells): Not Active
IC50 (Adenosine receptor A1): Not Active

CC(C)NCC(O)c1ccc(NS(C)(=O)=O)cc1 (configuration not stated) [SOTALOL]
IC50 [1]: Not Active
Ki [1]: Not Active
IC50 [2]: Not Active
IC50 [3]: Not Active
Ki [3]: Not Active
IC50 (Melanocortin receptor 3; hek293): Not Active
IC50 ([4]; insect cells): Not Active
IC50 (Adenosine receptor A1): Not Active

CS(=O)(=O)c1ccc([C@@H](O)[C@@H](CO)NC(=O)C(Cl)Cl)cc1 [THIAMPHENICOL]
IC50 [1]: Not Active
Ki [1]: Not Active
IC50 [2]: Not Active
IC50 [3]: Not Active
Ki [3]: Not Active
IC50 (Melanocortin receptor 3; hek293): Not Active
IC50 ([4]; insect cells): Not Active
IC50 (Adenosine receptor A1): Not Active

CN(C)CCOC(c1ccccc1)c1ccccc1 [DIPHENHYDRAMINE]
IC50 [2]: Not Active
IC50 (Melanocortin receptor 3; hek293): Not Active
IC50 ([4]; insect cells): Not Active
IC50 (Adenosine receptor A1): Not Active

CCN1CCC[C@H]1CNC(=O)c1cc(S(N)(=O)=O)ccc1OC [LEVOSULPIRIDE]
IC50 [1]: Not Active
Ki [1]: Not Active
IC50 [2]: Not Active
IC50 [3]: Not Active
Ki [3]: Not Active
IC50 (Melanocortin receptor 3; hek293): Not Active
IC50 ([4]; insect cells): Not Active
IC50 (Adenosine receptor A1): Not Active

CCN(CC)CC(=O)Nc1c(C)cccc1C [LIDOCAINE]
IC50 [1]: Not Active
Ki [1]: Not Active
IC50 [2]: Not Active
IC50 [3]: Not Active
Ki [3]: Not Active
IC50 (Melanocortin receptor 3; hek293): Not Active
IC50 ([4]; insect cells): Not Active
IC50 (Adenosine receptor A1): Not Active

CC(c1cc2ccccc2s1)N(O)C(N)=O (configuration not stated) [ZILEUTON]
IC50 [1]: Not Active
Ki [1]: Not Active
IC50 [2]: Not Active
IC50 [3]: Not Active
Ki [3]: Not Active
IC50 (Melanocortin receptor 3; hek293): Not Active
IC50 ([4]; insect cells): Not Active
IC50 (Adenosine receptor A1): Not Active

CCCCNc1ccc(C(=O)OCCN(C)C)cc1 [TETRACAINE]
IC50 [1]: Not Active
Ki [1]: Not Active
IC50 [2]: Not Active
IC50 [3]: Not Active
Ki [3]: Not Active
IC50 (Melanocortin receptor 3; hek293): Not Active
IC50 ([4]; insect cells): Not Active
IC50 (Adenosine receptor A1): Not Active

CNCCC(Oc1ccc(C(F)(F)F)cc1)c1ccccc1 (configuration not stated) [FLUOXETINE]
IC50 [2]: Not Active
IC50 (Melanocortin receptor 3; hek293): Not Active
IC50 ([4]; insect cells): Not Active
IC50 (Adenosine receptor A1): Not Active

CC[C@@H](C(=O)[C@@H](C)[C@@H](O)[C@H](C)[C@@H]1O[C@@H]([C@@H](CC)C(=O)O)CC[C@@H]1C)[C@H]1O[C@]2(C=C[C@@H](O)[C@]3(CC[C@@](C)([C@H]4CC[C@](O)(CC)[C@H](C)O4)O3)O2)[C@H](C)C[C@@H]1C [SALINOMYCIN]
IC50 [1]: Not Active
Ki [1]: Not Active
IC50 [2]: Not Active
IC50 [3]: Not Active
Ki [3]: Not Active
IC50 (Melanocortin receptor 3; hek293): Not Active
IC50 ([4]; insect cells): Not Active
IC50 (Adenosine receptor A1): Not Active

Cc1ccc(NC(=O)c2ccc(CN3CCN(C)CC3)cc2)cc1Nc1nccc(-c2cccnc2)n1 [IMATINIB]
IC50 [2]: Not Active
IC50 (Melanocortin receptor 3; hek293): Not Active
IC50 (Adenosine receptor A1): Not Active

Cn1c(=O)c2nc[nH]c2n(C)c1=O.O [THEOPHYLLINE]
IC50 [1]: Not Active
Ki [1]: Not Active
IC50 [2]: Not Active
IC50 [3]: Not Active
Ki [3]: Not Active
IC50 (Melanocortin receptor 3; hek293): Not Active
IC50 ([4]; insect cells): Not Active
